According to US10759783B2, “Biaryl inhibitors of Bruton'S tyrosine kinase” (BIOGEN MA INC., priority 2013, dated 2020):

Columns and labels:
[1] = target: BTK (phospho-BTK) in human whole blood (Homo sapiens, UniProt Q06187); experiment: In vitro PD assay in human whole blood (pBTK assay)
BTK enzyme = target: T1, BTK enzyme (Homo sapiens, UniProt Q06187); experiment: In vitro BTK kinase assay: BTK-POLYGAT-LS assay; format: biochemical; conditions: ATP 10 μM, read-out: IC50 (10uMATP)
T1 construct: purchased Upstate 14-552
T1 sequence (Q06187 whole entry): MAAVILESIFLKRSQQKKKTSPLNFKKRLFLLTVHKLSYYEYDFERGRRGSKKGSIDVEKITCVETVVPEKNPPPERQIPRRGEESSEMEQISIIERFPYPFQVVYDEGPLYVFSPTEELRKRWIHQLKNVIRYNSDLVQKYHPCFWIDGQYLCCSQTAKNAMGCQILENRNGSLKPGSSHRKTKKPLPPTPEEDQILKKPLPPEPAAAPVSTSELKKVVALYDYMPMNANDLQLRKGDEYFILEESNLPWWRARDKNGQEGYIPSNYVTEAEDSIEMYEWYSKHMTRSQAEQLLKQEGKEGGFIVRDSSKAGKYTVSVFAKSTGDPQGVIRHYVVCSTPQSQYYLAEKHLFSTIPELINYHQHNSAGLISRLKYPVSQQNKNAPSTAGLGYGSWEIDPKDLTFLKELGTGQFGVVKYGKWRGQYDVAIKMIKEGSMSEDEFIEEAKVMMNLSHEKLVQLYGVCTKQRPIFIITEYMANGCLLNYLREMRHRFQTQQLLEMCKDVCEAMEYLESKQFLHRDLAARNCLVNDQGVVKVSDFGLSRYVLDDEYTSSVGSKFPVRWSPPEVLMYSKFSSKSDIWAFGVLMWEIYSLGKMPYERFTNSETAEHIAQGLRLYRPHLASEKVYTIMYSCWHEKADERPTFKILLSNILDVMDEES
Summary of the method: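 Human BTK activity was measured with final 10 μM ATP and 100 nM polyGAT substrate in pH 7.5 Tris buffer with 10 mM MgCl2, DTT, Triton X-100 and casein.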

BTK (phospho-BTK) in human whole blood, sequence (Q06187 whole entry): as above

Structure (SMILES)	IC50 [1]	IC50 (BTK enzyme)
CC(C)(C)OC1CN(C(=O)NC2CCCCc3cc(-c4ccnc(Nc5cnn(C6CCNCC6)c5)n4)ccc32)C1 (stereo not shown) [Example I-343, 3-tert-butoxy-N-[2-[2-[[1-(4-piperidyl)pyrazol-4-yl]amino]pyrimidin-4-yl]-6,7,8,9-tetrahydro-5H-benzo[7]annulen-5-yl]azetidine-1-carboxamide]	< 500 nM	< 10 nM
Cc1c(Nc2nccc(-c3ccc4c(c3)CCCCC4NC(=O)N3CC(OC(C)(C)C)C3)n2)cnn1C (stereo not shown) [Example I-347, 3-tert-butoxy-N-[2-[2-[(1,5-dimethylpyrazol-4-yl)amino]pyrimidin-4-yl]-6,7,8,9-tetrahydro-5H-benzo[7]annulen-5-yl]azetidine-1-carboxamide]	< 500 nM	< 10 nM
COCCn1cc(Nc2nccc(-c3ccc(CNC(=O)N4CC(OC(C)C)C4)c(C(F)(F)F)c3)n2)cn1 [Example I-351, 3-isopropoxy-N-[[4-[2-[[1-(2-methoxyethyl)pyrazol-4-yl]amino]pyrimidin-4-yl]-2-(trifluoromethyl)phenyl]methyl]azetidine-1-carboxamide]	< 500 nM	< 10 nM
CC(C)OC1CN(C(=O)NC2CNCCc3cc(-c4ccnc(Nc5cnn(C)c5)n4)ccc32)C1 (stereo not shown) [Example I-352, 3-isopropoxy-N-[7-[2-[(1-methylpyrazol-4-yl)amino]pyrimidin-4-yl]-2,3,4,5-tetrahydro-1H-3-benzazepin-1-yl]azetidine-1-carboxamide]	< 500 nM	10 to 99 nM
CC(C)OC1CN(C(=O)NCc2ccc(-c3ccnc(Nc4cnn(C5CN(C)C5)c4)n3)cc2Cl)C1 [Example I-353, N-[[2-chloro-4-[2-[[1-(1-methylazetidin-3-yl)pyrazol-4-yl]amino]pyrimidin-4-yl]phenyl]methyl]-3-isopropoxy-azetidine-1-carboxamide]	< 500 nM	< 10 nM
CN1CC(n2cc(Nc3nccc(-c4ccc(CNC(=O)c5cc(C(C)(C)C)on5)c(Cl)c4)n3)cn2)C1 [Example I-354, 5-tert-butyl-N-[[2-chloro-4-[2-[[1-(1-methylazetidin-3-yl)pyrazol-4-yl]amino]pyrimidin-4-yl]phenyl]methyl]isoxazole-3-carboxamide]	< 500 nM	< 10 nM
CN1CC(n2cc(Nc3nccc(-c4ccc(CNC(=O)c5cc(C(C)(C)C)on5)c(C(F)(F)F)c4)n3)cn2)C1 [Example I-355, 5-tert-butyl-N-[[4-[2-[[1-(1-methylazetidin-3-yl)pyrazol-4-yl]amino]pyrimidin-4-yl]-2-(trifluoromethyl)phenyl]methyl]isoxazole-3-carboxamide]	< 500 nM	< 10 nM
CN1CC(n2cc(Nc3nccc(-c4ccc(CNC(=O)c5cnn(C(C)(C)C)c5)c(Cl)c4)n3)cn2)C1 [Example I-356, 1-tert-butyl-N-[[2-chloro-4-[2-[[1-(1-methylazetidin-3-yl)pyrazol-4-yl]amino]pyrimidin-4-yl]phenyl]methyl]pyrazole-4-carboxamide]	< 500 nM	< 10 nM
Cc1cc(-c2cc(Nc3ccn([C@@H]4CCOC4)n3)ncn2)ccc1CNC(=O)c1cnc(C(C)(C)C)s1 [Example I-357, 2-tert-butyl-N-[[2-methyl-4-[6-[[1-[(3R)-tetrahydrofuran-3-yl]pyrazol-3-yl]amino]pyrimidin-4-yl]phenyl]methyl]thiazole-5-carboxamide]	< 500 nM	< 10 nM
Cc1cc(-c2cc(Nc3ccn(C4CCN(C)CC4)n3)ncn2)ccc1CNC(=O)c1cnc(C(C)(C)C)s1 [Example I-358, 2-tert-butyl-N-[[2-methyl-4-[6-[[1-(1-methyl-4-piperidyl)pyrazol-3-yl]amino]pyrimidin-4-yl]phenyl]methyl]thiazole-5-carboxamide]	< 500 nM	< 10 nM
Cn1cc(Nc2nccc(-c3ccc4c(c3)CCCC4NC(=O)N3CC(OC(C)(C)C)C3)n2)cn1 (stereo not shown) [Example I-359, 3-tert-butoxy-N-[6-[2-[(1-methylpyrazol-4-yl)amino]pyrimidin-4-yl]tetralin-1-yl]azetidine-1-carboxamide]	< 500 nM	< 10 nM
CCn1cc(Nc2nccc(-c3ccc(CNC(=O)N4CC(OC(C)C)C4)c(C)c3)n2)cn1 [Example I-360, N-[[4-[2-[(1-ethylpyrazol-4-yl)amino]pyrimidin-4-yl]-2-methyl-phenyl]methyl]-3-isopropoxy-azetidine-1-carboxamideacid]	< 500 nM	< 10 nM

The remaining lines, values ahead:

IC50 [1]	IC50 (BTK enzyme)	Structure (SMILES)
< 500 nM	10 to 99 nM	COC1CN(C(=O)NC2CCCCc3cc(-c4ccnc(Nc5cnn(C)c5)n4)ccc32)C1 (stereo not shown) [Example I-339, 3-methoxy-N-[2-[2-[(1-methylpyrazol-4-yl)amino]pyrimidin-4-yl]-6,7,8,9-tetrahydro-5H-benzo[7]annulen-5-yl]azetidine-1-carboxamide]
< 500 nM	< 10 nM	CCn1cc(Nc2nccc(-c3ccc4c(c3)CCCCC4NC(=O)N3CCC(C(C)C)C3)n2)cn1 (stereo not shown) [Example I-341, N-[2-[2-[(1-ethylpyrazol-4-yl)amino]pyrimidin-4-yl]-6,7,8,9-tetrahydro-5H-benzo[7]annulen-5-yl]-3-isopropyl-pyrrolidine-1-carboxamide]
< 500 nM	< 10 nM	CC(C)C1CCN(C(=O)NC2CCCCc3cc(-c4ccnc(Nc5cnn(C6CCOCC6)c5)n4)ccc32)C1 (stereo not shown) [Example I-342, 3-isopropyl-N-[2-[2-[(1-tetrahydropyran-4-ylpyrazol-4-yl)amino]pyrimidin-4-yl]-6,7,8,9-tetrahydro-5H-benzo[7]annulen-5-yl]pyrrolidine-1-carboxamide]
< 500 nM	< 10 nM	CC(C)C1CCN(C(=O)NC2CCCCc3cc(-c4ccnc(Nc5cnn([C@@H]6CCOC6)c5)n4)ccc32)C1 (stereo partly drawn) [Example I-344, 3-isopropyl-N-[2-[2-[[1-[(3R)-tetrahydrofuran-3-yl]pyrazol-4-yl]amino]pyrimidin-4-yl]-6,7,8,9-tetrahydro-5H-benzo[7]annulen-5-yl]pyrrolidine-1-carboxamide]
< 500 nM	< 10 nM	CC(C)C1CCN(C(=O)NC2CCCCc3cc(-c4ccnc(Nc5cnn([C@H]6CCOC6)c5)n4)ccc32)C1 (stereo partly drawn) [Example I-345, 3-isopropyl-N-[2-[2-[[1-[(3S)-tetrahydrofuran-3-yl]pyrazol-4-yl]amino]pyrimidin-4-yl]-6,7,8,9-tetrahydro-5H-benzo[7]annulen-5-yl]pyrrolidine-1-carboxamide]
< 500 nM	< 10 nM	CC(C)OC1CN(C(=O)NC2CCN(CCO)Cc3cc(-c4ccnc(Nc5cnn(C)c5)n4)ccc32)C1 (stereo not shown) [Example I-346, N-[2-(2-hydroxyethyl)-8-[2-[(1-methylpyrazol-4-yl)amino]pyrimidin-4-yl]-1,3,4,5-tetrahydro-2-benzazepin-5-yl]-3-isopropoxy-azetidine-1-carboxamide]
< 500 nM	< 10 nM	CC(C)OC1CN(C(=O)NC2CCCCc3cc(-c4ccnc(Nc5cnn(C6CCN(C)CC6F)c5)n4)ccc32)C1 (stereo not shown) [Example I-348, N-[2-[2-[[1-(3-fluoro-1-methyl-4-piperidyl)pyrazol-4-yl]amino]pyrimidin-4-yl]-6,7,8,9-tetrahydro-5H-benzo[7]annulen-5-yl]-3-isopropoxy-azetidine-1-carboxamide]
< 500 nM	< 10 nM	CC(C)(C)CN1CCN(Cc2ccc(-c3ccnc(Nc4cnn(CCO)c4)n3)cc2C(F)(F)F)C(=O)C1 [Example I-350]
